Measurements as given in patent publication US11291200B2, “Application of viable cell monitor to cryopreservation of plant cells” (EAST CHINA UNIVERSITY OF SCIENCE AND TECHNOLOGY, priority 2016, dated 2022).

Legend:
[1] = tested on: suspension cells from Siraitia grosvenorii; assay: Measurement of mitochondrial activity (TTC) after cryopreservation; format: cell-based; conditions: for TTC value/100 mg of cells: -80° C. 24 h; for TTC value score: per-level statistic of Table 1
Protocol: After mixing evenly, performing dark culture at 25° C. for 16 h. After the dark culture, the supernatant is removed by centrifugation and the cells are washed with distilled water three times. Adding with 4 mL of methanol and placing in a 60° C. water bath for 50 min, gently blow twice with a pipette tip until the cells have detached to colourless.

[2] = tested on: suspension cells from Siraitia grosvenorii; assay: Cell viability evaluation by viable cell monitor (viable cell capacitance, viability preservation rate after cryopreservation); format: cell-based; conditions: for A1 (viable cell capacitance of the pre-treated cell): before freezing; for A3 (basal capacitance of the cell): cell death totally; for A2 (viable cell capacitance after resuscitation) / Viability preservation rate: -80° C. 24 h
Protocol: Taking a certain number of cells in the logarithmic growth phase for centrifugation (or sedimentation) and adding an equal amount of pre-treatment fluids after removing the supernatant. […] Pre-treated cells are centrifuged. Adding cryoprotectants after removing the supernatant and incubating at 0-4° C. and 110 rpm for 45 min. After incubation, the cells are first cooled at −20° C. for 40 min and then cooled in the −80° C. cryogenic refrigerator. Frozen cells are thawed in a water bath at 39° C., for 2-3 min. […] Mixing evenly the suspension cells and then measuring the capacitance of viable cells with a viable cell monitor. The viable cell capacitance of the pre-treated cell is denoted as A1; the viable cell capacitance after resuscitation is denoted as A2; and the basal capacitance of the cell is denoted as A3 (capacitance when cell death totally). […] The basic capacitance of cells: the cell suspension is boiled in boiling water for 1 h, and then subjected to ultrasonication for 40 min. The capacitance measured is the basic capacitance.

[3] = 0.2 M sucrose as pre-treatment agent, cryoprotectant liquid medium+10% DMSO+10% sucrose, compared with the control without pre-treatment
[4] = 0.2 M sucrose pre-treatment time 1 h, liquid medium+10% DMSO+10% sucrose
[5] = 0.2 M sucrose pre-treatment time 2 h, liquid medium+10% DMSO+10% sucrose
[6] = 0.2 M sucrose pre-treatment time 5 h, liquid medium+10% DMSO+10% sucrose
[7] = 0.2 M sucrose pre-treatment time 9 h, liquid medium+10% DMSO+10% sucrose
[8] = 0.2 M sucrose pre-treatment time 22 h, liquid medium+10% DMSO+10% sucrose
[9] = 0.2 M sucrose pre-treatment time 46 h, liquid medium+10% DMSO+10% sucrose
[10] = pre-treatment agent 0.2M, frozen medium liquid medium+10% DMSO+10% sucrose
[11] = pre-treatment agent 0.35M, frozen medium liquid medium+10% DMSO+10% sucrose
[12] = pre-treatment agent 0.5M, frozen medium liquid medium+10% DMSO+10% sucrose
[13] = 0.2 M sucrose pre-treatment time 1 h
[14] = 0.2 M sucrose pre-treatment time 2 h
[15] = 0.2 M sucrose pre-treatment time 5 h
[16] = 0.2 M sucrose pre-treatment time 9 h
[17] = 0.2 M sucrose pre-treatment time 22 h
[18] = 0.2 M sucrose pre-treatment time 46 h
[19] = Siraitia grosvenorii, 45 min, 5 %
[20] = Siraitia grosvenorii, 45 min, 10 %

In the case of OC[C@H]1O[C@@](CO)(O[C@H]2O[C@H](CO)[C@@H](O)[C@H](O)[C@H]2O)[C@@H](O)[C@@H]1O [Sucrose, sucrose], the “increase of mitochondrial activity (TTC value)” value [1, 3] is reported as 36.72%, the “TTC value/100 mg of cells” value [1, 4] is reported as 0.195 and the “TTC value/100 mg of cells” value [1, 5] is reported as 0.201. The “TTC value/100 mg of cells” value [1, 6] was 0.225, the “TTC value/100 mg of cells” value [1, 7] was 0.376 and the “TTC value/100 mg of cells” value [1, 8] was 0.319. For the same molecule, the “TTC value/100 mg of cells” value [1, 9] was 0.106, the TTC value score ([1]; cryoprotectant level 5%) was 0.506 and the TTC value score ([1]; cryoprotectant level 10%) was 0.847. The “TTC value/100 mg of cells” value [1, 10] was 0.916, the “TTC value/100 mg of cells” value [1, 11] was 0.479 and the “TTC value/100 mg of cells” value [1, 12] was 0.232. For the same molecule, the “increase of cell viability preservation rate” value [2, 3] was 29.18%, the “A1 (viable cell capacitance of the pre-treated cell)” value [2, 13] was 62.11 pF/cm and the “A3 (basal capacitance of the cell)” value [2, 13] was 8.41 pF/cm. The “A2 (viable cell capacitance after resuscitation)” value [2, 4] was 14.46 pF/cm, the “A1 (viable cell capacitance of the pre-treated cell)” value [2, 14] was 61.68 pF/cm and the “A3 (basal capacitance of the cell)” value [2, 14] was 8.78 pF/cm. The “A2 (viable cell capacitance after resuscitation)” value [2, 5] was 15.63 pF/cm, the “A1 (viable cell capacitance of the pre-treated cell)” value [2, 15] was 61.19 pF/cm and the “A3 (basal capacitance of the cell)” value [2, 15] was 11.09 pF/cm. The “A2 (viable cell capacitance after resuscitation)” value [2, 6] was 21.21 pF/cm, the “A1 (viable cell capacitance of the pre-treated cell)” value [2, 16] was 58.51 pF/cm and the “A3 (basal capacitance of the cell)” value [2, 16] was 11.3 pF/cm. The “A2 (viable cell capacitance after resuscitation)” value [2, 7] was 25.85 pF/cm, the “A1 (viable cell capacitance of the pre-treated cell)” value [2, 17] was 56.48 pF/cm and the “A3 (basal capacitance of the cell)” value [2, 17] was 10.43 pF/cm. The “A2 (viable cell capacitance after resuscitation)” value [2, 8] was 22.86 pF/cm, the “A1 (viable cell capacitance of the pre-treated cell)” value [2, 18] was 45.92 pF/cm and the “A3 (basal capacitance of the cell)” value [2, 18] was 10.94 pF/cm. The “A2 (viable cell capacitance after resuscitation)” value [2, 9] was 14.60 pF/cm, the “Viability preservation rate score” value [2, 19] was 31.15% and the “Viability preservation rate score” value [2, 20] was 42.98%. For the same molecule, the “A1 (viable cell capacitance of the pre-treated cell)” value ([2]; pre-treatment agent 0.2M) was 42.25 pF/cm, the “A3 (basal capacitance of the cell)” value ([2]; pre-treatment agent 0.2M) was 10.00 pF/cm and the “A2 (viable cell capacitance after resuscitation)” value [2, 10] was 26.44 pF/cm. For the same molecule, the “A1 (viable cell capacitance of the pre-treated cell)” value ([2]; pre-treatment agent 0.35M) was 30.55 pF/cm, the “A3 (basal capacitance of the cell)” value ([2]; pre-treatment agent 0.35M) was 8.49 pF/cm and the “A2 (viable cell capacitance after resuscitation)” value [2, 11] was 17.01 pF/cm. The “A1 (viable cell capacitance of the pre-treated cell)” value ([2]; pre-treatment agent 0.5M) was 24.62 pF/cm, the “A3 (basal capacitance of the cell)” value ([2]; pre-treatment agent 0.5M) was 6.03 pF/cm and the “A2 (viable cell capacitance after resuscitation)” value [2, 12] was 11.81 pF/cm.
In the case of C[S+](C)[O-] [DMSO, dimethyl sulfoxide], the TTC value score ([1]; cryoprotectant level 5%) is reported as 0.633, the TTC value score ([1]; cryoprotectant level 10%) is reported as 0.792 and the “Viability preservation rate score” value [2, 19] is reported as 35.90%. For the same molecule, the “Viability preservation rate score” value [2, 20] was 37.09%.
With OC[C@H]1O[C@H](O[C@H]2O[C@H](CO)[C@@H](O)[C@H](O)[C@H]2O)[C@H](O)[C@@H](O)[C@@H]1O [Trehalose, trehalose] the “TTC value/100 mg of cells” value [1, 10] was 0.767, the “TTC value/100 mg of cells” value [1, 11] was 0.841 and the “TTC value/100 mg of cells” value [1, 12] was 0.224. For the same molecule, the “A1 (viable cell capacitance of the pre-treated cell)” value ([2]; pre-treatment agent 0.2M) was 41.05 pF/cm, the “A3 (basal capacitance of the cell)” value ([2]; pre-treatment agent 0.2M) was 7.77 pF/cm and the “A2 (viable cell capacitance after resuscitation)” value [2, 10] was 23.40 pF/cm. The Viability preservation rate [2, 10] was 46.97%, the “A1 (viable cell capacitance of the pre-treated cell)” value ([2]; pre-treatment agent 0.35M) was 34.06 pF/cm and the “A3 (basal capacitance of the cell)” value ([2]; pre-treatment agent 0.35M) was 7.09 pF/cm. For the same molecule, the “A2 (viable cell capacitance after resuscitation)” value [2, 11] was 18.80 pF/cm, the Viability preservation rate [2, 11] was 43.42% and the “A1 (viable cell capacitance of the pre-treated cell)” value ([2]; pre-treatment agent 0.5M) was 21.20 pF/cm. The “A3 (basal capacitance of the cell)” value ([2]; pre-treatment agent 0.5M) was 5.50 pF/cm, the “A2 (viable cell capacitance after resuscitation)” value [2, 12] was 10.65 pF/cm and the Viability preservation rate [2, 12] was 32.80%.
OC[C@@H](O)[C@@H](O)[C@H](O)[C@@H](O)CO [sorbitol] was tested, and the TTC value score ([1]; cryoprotectant level 5%) was 0.652, the TTC value score ([1]; cryoprotectant level 10%) was 0.846 and the “Viability preservation rate score” value ([2]; cryoprotectant level 5%, per-level statistic of Table 1) was 31.20%. For the same molecule, the “Viability preservation rate score” value ([2]; cryoprotectant level 10%, per-level statistic of Table 1) was 40.65%.
